Data: US5326766A, “4-(2-(4-(2-pyridinyloxy)phenyl)ethoxy)quinazoline and analogues thereof” (priority 1992, dated 1994)

Key:
[1] = system: Pyricularia oryzae (rice blast); assay: whole plant or invertebrate; type: in vivo; settings: Pyricularia oryzae, foliar, read-out: PYRIOR disease control, host rice; foliar spray; 400 ppm (+++: 100 ppm)
[2] = system: Southern corn rootworm (Diabrotica undecimpuctata howardi Barber); assay: whole plant or invertebrate; type: in vivo; settings: 400 ppm, soil concentration of 24 ppm, 3-4 days, read-out: SCRW mortality
Description: (§1) The compounds identified in Table I were tested for miticidal and insecticidal activity against eight species. The following abbreviations are used in the Table III:
SCRW refers to southern corn rootworm
(§2) In conducting evaluations of insecticidal activity, each test compound was formulated as a 400 ppm solution, and this solution was then diluted with water to give lesser concentrations. The 400 ppm solution was prepared by combining 19.2 mL of 0.05% solution of Tween 20 (polyoxyethylene (20) sorbitan monolaurate) in water with a solution of 8 mg of the compound in 0.8 mL of acetone/EtOH (9/1).
Activity on Southern corn rootworm (Diabrotica undecimpuctata howardi Barber) was evaluated by adding one mL of test solution containing a predetermined concentration of test compound to a cup containing a kernel of corn in 16 g of sterile soil. This produces a soil concentration of 24 ppm. After 1.5 to 2 hours of drying, five 4th instar corn rootworm larvae were added to the individual cups. Mortality was measured at 3-4 days by emptying the cup onto a pan and inspecting the soil for live rootworms.

[3] = system: Erysiphe graminis tritici (powdery mildew); assay: Foliar spray fungicide test, Erysiphe graminis tritici (powdery mildew) on wheat; settings: Blumeria graminis, in Triticum aestivum, foliar, read-out: ERYSGT disease control, host wheat, 400 ppm (+++: 100 ppm)
Description: (§3) The test compounds were formulated for application by dissolving 50 mg of the compound into 1.25 ml of solvent. The solvent was prepared by mixing 50 ml of "Tween 20" (polyoxyethylene (20) sorbitan monolaurate emulsifier) with 475 ml of acetone and 475 ml of ethanol. The solvent/compound solution was diluted to 125 ml with deionized water. The resulting formulation contains 400 ppm test chemical. Lower concentrations were obtained by serial dilution with the solvent-surfactant mixture.
(§4) The formulated test compounds were applied by foliar spray. The following plant pathogens and their corresponding plants were employed.
(§5) The formulated technical compounds were sprayed on all foliar surfaces of the host plants to past run-off. Single pots of each host plant were placed on raised, revolving pedestals in a fume hood. Test solutions were sprayed on all foliar surfaces. All treatments were allowed to dry and the plants were inoculated with the appropriate pathogens within 24 hours.
(§6) The effectiveness of test compounds in controlling disease was rated using the following scale.

[4] = system: tobacco budworm (Heliothis virescens); assay: Activity against tobacco budworm; type: in vivo; settings: Heliothis virescens, 144 h, 6 days, read-out: TBW activity (rated on live and dead larvae and size of live larvae)
Description: as §1
TBW refers to tobacco budworm
as §2
Activity against tobacco budworm (Heliothis virescens) was evaluated as follows. A general purpose lepidoptera artificial diet was diluted to half strength with a 5% non nutritive agar. 8 mL of this diet material was dispensed into each one ounce diet cup. One hour prior to treatment 18 to 20 eggs were dispensed onto the diet surface. The cups were then sprayed with formulated material through a flat-fan nozzle. The test was run using concentrations of 400 ppm and 50 ppm. Treated cups were air dried prior to sealing with plastic caps. The cups were held for 6 days at room temperature. Activity was then rated based on the total number of live and dead larvae, and on the size of live larvae.

[5] = system: Leptosphaeria nodorum (glume blotch); assay: Foliar spray fungicide test, Leptosphaeria nodorum (glume blotch) on wheat; settings: Parastagonospora nodorum, in Triticum aestivum, foliar, read-out: LETPNO disease control, host wheat, 400 ppm (+++: 100 ppm)
[6] = system: German cockroach (Blattella germanicus); assay: whole plant or invertebrate; type: in vivo; settings: 240 h, ten days, read-out: GECR activity (rated on live and dead insects)
Description: as §1
GECR refers to German cockroach
as §2
Activity against German cockroach (Blattella germanicus) was evaluated as follows. 8 mL of alfalfa based green insect diet material was dispensed into a one ounce diet cup. The cups were then sprayed with formulated material through a flat-fan nozzle. The test was run using concentrations of 400 ppm and 50 ppm. Treated cups were air dried for 24 hours and infested with five late third or early fourth instar German cockroaches. The cups were capped and held for ten days in an environmental growth chamber at a temperature of […]. Activity was then rated based on the total number of live and dead insects.

[7] = system: Puccinia recondita tritici (leaf rust); assay: Foliar spray fungicide test, Puccinia recondita tritici (leaf rust) on wheat; settings: Puccinia recondita, in Triticum aestivum, foliar, read-out: PUCCRT disease control, host wheat, 400 ppm (+++: 100 ppm)
Description: as §3, §4
Puccinia recondita PUCCRT wheat
as §5, §6

[8] = system: cotton aphid (Aphis gossypii); assay: whole plant or invertebrate; settings: 72 h; for mortality at 400 ppm: read-out: CA activity (percent based on aphids present in plants sprayed with solvent alone), 400 ppm, squash plants, three days after treatment; for mortality at 50 ppm: read-out: CA activity (percent based on aphids present in plants sprayed with solvent alone), 50 ppm, squash plants, three days after treatment
[9] = system: two spotted spider mite (Tetranychus urticae); assay: whole plant or invertebrate; settings: 72 h; for mortality at 400 ppm: read-out: TSSM activity (percent based on mites present in plants sprayed with solvent alone), 400 ppm, squash plants, three days after treatment; for mortality at 50 ppm: read-out: TSSM activity (percent based on mites present in plants sprayed with solvent alone), 50 ppm, squash plants, three days after treatment
[10] = system: beet armyworm (Spodoptera exiqua); assay: Activity against beet armyworm; type: in vivo; settings: Spodoptera, 144 h, 6 days, read-out: BAW activity (rated on live and dead larvae and size of live larvae)
Description: as §1
BAW refers to beet armyworm
as §2
Activity against beet armyworm (Spodoptera exiqua) was evaluated as follows. The test is run using concentrations of 400 ppm and 50 ppm. A general purpose lepidoptera artificial diet was diluted to half strength with a 5% non nutritive agar. 8 mL of this diet material was dispensed into one ounce diet cups. One hour prior to treatment, 35 to 40 eggs were dispensed onto the diet surface. The cups were then sprayed with formulated material through a flat-fan nozzle. Treated cups were air dried prior to sealing with plastic caps. The cups were held for 6 days at room temperature. Activity was then rated based on the total number of live and dead larvae, and on the size of live larvae.

[11] = system: Plasmopara viticola (downy mildew); assay: Foliar spray fungicide test, Plasmopara viticola (downy mildew) on grape; settings: Plasmopara viticola, foliar, read-out: PLASVI disease control
Description: as §3
The formulated test compounds were applied by foliar spray.
as §5, §6

[12] = system: aster leafhopper (Macrosteles fascifrons); assay: whole plant or invertebrate; type: in vivo; settings: Macrosteles fascifrons, 24 h, read-out: ALH percent mortality
Description: as §1
ALH refers to aster leafhopper
as §2
Activity against aster leafhopper (Macrosteles fascifrons) was tested as follows. The test was run using concentrations of 400 ppm and 50 ppm. One ounce plastic cups containing a cotton wick was sprayed with 0.4 mL of formulated material using a flat-fan nozzle. The excess moisture was allowed to evaporate. Then five to ten carbon dioxide anesthetized adult leafhoppers were added to each cup. The cups were capped and held at room temperature for 24 hours. Percent mortality was then determined.

Structure (SMILES) | pest or weed control at 400 µg/mL [1] [%] | mortality at 24 ppm [2] [%] | pest or weed control at 400 µg/mL [3] [%] | pest or weed control at 400 ppm [4] [%] | pest or weed control at 400 µg/mL [5] [%] | mortality at 400 ppm [6] [%] | pest or weed control at 400 µg/mL [7] [%] | mortality at 400 ppm [8] [%] | mortality at 400 ppm [9] [%] | pest or weed control at 400 ppm [10] [%] | pest or weed control at 400 µg/mL [11] [%] | mortality at 400 ppm [12] [%] | pest or weed control at 50 ppm [4] [%] | mortality at 50 ppm [6] [%] | mortality at 50 ppm [8] [%] | mortality at 50 ppm [9] [%] | pest or weed control at 50 ppm [10] [%] | mortality at 50 ppm [12] [%]
N#Cc1ccc(Oc2ccc(CCOc3ncnc4c(F)cccc34)cc2)nc1 [Compound 20] | 90 to 100 | 0 | 90 to 100 | 0 | 20 to 89 | 0 | 90 to 100 | 0 | 0 | 0 | 90 to 100 | 0 | – | – | – | – | – | –
N#Cc1ccc(Oc2ccc(CCOc3ncnc4ccccc34)cc2)nc1 [Compound 21] | 20 to 89 | 0 | 20 to 89 | 0 | 20 to 89 | 0 | 90 to 100 | 100 | 0 | 0 | 90 to 100 | 60 | – | – | – | – | – | –
O=[N+]([O-])c1ccc(Oc2ccc(CCOc3ncnc4c(F)cccc34)cc2)nc1 [Compound 23] | 20 to 89 | 0 | 20 to 89 | 100 | 20 to 89 | 40 | 90 to 100 | 90 | 50 | 100 | 90 to 100 | 80 | 100 | 0 | 0 | 0 | 100 | 60
Fc1cccc2c(OCCc3ccc(Oc4ccc(C(Cl)(Cl)Cl)cn4)cc3)ncnc12 [Compound 25] | 20 to 89 | 0 | 20 to 89 | 100 | 0 to 19 | 0 | 90 to 100 | 85 | 90 | 0 | 90 to 100 | 0 | – | – | – | – | – | –
ClC(Cl)(Cl)c1ccc(Oc2ccc(CCOc3ncnc4ccccc34)cc2)nc1 [Compound 26] | 20 to 89 | 0 | 0 to 19 | 100 | 0 to 19 | 0 | 90 to 100 | 100 | 100 | 0 | 90 to 100 | 100 | – | – | – | – | – | –
Fc1cccc2c(NCCc3ccc(Oc4ccc(C(F)(F)F)cn4)cc3)ncnc12 [Compound 28, 8-Fluoro-4-(2-(4-(5-(trifluoromethyl)-2-pyridinyloxy)phenyl)ethylamino)quinazoline] | 20 to 89 | 0 | 90 to 100 | 100 | 90 to 100 | 80 | 90 to 100 | 100 | 100 | 100 | 90 to 100 | 100 | 100 | 0 | 100 | 100 | 100 | 100
FC(F)(F)c1ccc(Oc2ccc(CCNc3ncnc4ccccc34)cc2)nc1 [Compound 29] | 90 to 100 | 100 | 90 to 100 | 100 | 20 to 89 | 20 | 90 to 100 | 100 | 100 | 100 | 90 to 100 | 100 | 100 | 0 | 90 | 100 | 100 | 100
Fc1cccc2c(OCCc3ccc(Oc4cc(C(Cl)(Cl)Cl)cc(Cl)n4)cc3)ncnc12 [Compound 34] | 20 to 89 | 0 | 0 to 19 | 80 | 0 to 19 | 0 | 20 to 89 | 0 | 0 | 100 | 0 to 19 | 20 | 0 | 0 | 0 | 0 | 0 | 40
COc1cc(C(Cl)(Cl)Cl)cc(Oc2ccc(CCNc3ncnc4c(F)cccc34)cc2)n1 [Compound 35] | 0 to 19 | 0 | 0 to 19 | 80 | 0 to 19 | 0 | 90 to 100 | 0 | 0 | 100 | 0 to 19 | 80 | 0 | – | 0 | 0 | 100 | 0
